Assays:
Type in all cases: physicochemical
[1] = Chemical stability on storage, analyses by HPLC; details: for variation in the chemical composition: after one month at 40±2° C./75±5% relative humidity; for time for which chemically stable (none impurity departed from its initial value): HPLC
Description: The analyses were performed by HPLC.

[2] = Physical stability on storage (features of FIG. 1-4 maintained); details: 40±2° C./75±5 relative humidity
Description: The amorphous form of compound (I) has also been found physically stable at 25±2° C./60±5% relative humidity for at least three years and at 40±2° C./75±5 relative humidity for at least 6 months, as it maintained the characteristics features reported in FIG. 1-4.

[3] = Solubility (comparison of solid forms); details: compared with other crystalline forms

COc1cc2c(c(OC)c1OC)-c1ccc(SC)c(=O)cc1[C@@H](NC(=O)CCNC(=O)N[C@H]1CCc3cc(OC)c(OC)c(OC)c3-c3ccc(SC)c(=O)cc31)CC2 (single isomer, unassigned) [crystalline IDN 5404 obtained in Example 3] [reference compound]
variation in the chemical composition [1]: 4.1%

COc1cc2c(c(OC)c1OC)-c1ccc(SC)c(=O)cc1[C@@H](NC(=O)CCNC(=O)N[C@H]1CCc3cc(OC)c(OC)c(OC)c3-c3ccc(SC)c(=O)cc31)CC2 (single isomer, unassigned) [crystalline IDN 5404 obtained in Example 2] [reference compound]
variation in the chemical composition [1]: 7%

COc1cc2c(c(OC)c1OC)-c1ccc(SC)c(=O)cc1[C@@H](NC(=O)CCNC(=O)N[C@H]1CCc3cc(OC)c(OC)c(OC)c3-c3ccc(SC)c(=O)cc31)CC2 [amorphous form of compound (I), IDN 5404]
time for which chemically stable (none impurity departed from its initial value) ([1]; 25±2° C./60±5% relative humidity): at least three
time for which chemically stable (none impurity departed from its initial value) ([1]; 40±2° C./75±5% relative humidity): at least 6 moths
time for which physically stable (maintained features of FIG. 1-4) [2]: at least 6 months
solubility in water [3]: more soluble in water than other crystalline forms
